Experimental data as given in US10993957B2 (NuCana plc, priority 2011, dated 2021).
Where two headings read alike, the source gives them in different places.

Legend:
[1] = molecular target: E. coli TP (Escherichia coli, UniProt P07650); experiment: Phosphorolysis by E. coli TP, HPLC; conditions: 100 μM compound, room temperature, 0-40 min
Description: Reaction mixtures containing 100 μM test compound and recombinant TP or UP (human TP: 8.6 ng/μL; E. coli TP: 3.0 ng/μL; human UP: 4 ng/mL) in a total volume of 500 μL reaction buffer (10 mM TrisHCl; 300 μM NaCl; 1 mM EDTA; 2 mM KH2PO4/K2HPO4) were incubated at room temperature. At different time points (i.e. 0, 20, 40 min) 100 μL aliquots of the reaction mixtures were withdrawn and heated at 95° C. for 3 min to inactivate the enzyme. The resulting reaction products were separated on a reverse-phase RP-8 column (Merck, Darmstadt, Germany) and quantified by HPLC analysis (Alliance 2690, Waters, Milford, Mass.). […] UV-based detection was performed at 267 nm. The separation of Urd from uracil was performed by a linear gradient from 100% separation buffer (see above) to 60% separation buffer+40% acetonitrile (3 min 100% separation buffer; 6 min linear gradient of 100% separation buffer to 60% separation buffer+40% acetonitrile; 6 min 60% separation buffer+40% acetonitrile, followed by equilibration at 100% separation buffer). UV-based detection was performed at 258 nm.

[2] = test system: L1210/0; experiment: Cytostatic assay, L1210/0 cells; type: cell-based, murine; conditions: Mus musculus; for IC50: read-out: IC50 L1210/0
Description: (§1) The cell lines employed were L1210/0 (a leukemia cell line), FM3A/0 (a breast cancer cell line), Cem/0 (an acute lymphoblastic leukemia cell line) and HeLa (a cervical cell line).

[3] = test system: U87.Hyor; experiment: Cytostatic assay, Mycoplasma hyorhinis-infected U87 cells; type: cell-based, human; conditions: for IC50: Homo sapiens, U-87 MG, read-out: IC50 U87.Hyor
Description: All cells were maintained in Dulbecco's modified Eagle's medium (DMEM) (Invitrogen, Carlsbad, Calif.) with 10% foetal bovine serum (FBS) (Biochrom AG, Berlin, Germany), 10 mM Hepes and 1 mM Sodium Pyruvate (Invitrogen). Cells were grown at 37° C. in a humidified incubator with a gas phase of 5% CO2.
Monolayer cells (U87 and U87.Hyor) were seeded in 48-well microtiter plates (Nunc™, Roskilde, Denmark) at 10,000 cells/well. After 24 hours, an equal volume of fresh medium containing the test compounds was added. On day 5, cells were trypsinized and counted in a Coulter counter (Analis, Suarlée, Belgium). Suspension cells (L1210/0, L1210/TK^−, L1210.Hyor, CEM/0, CEM/TK^−) were seeded in 96-well microtiter plates (Nunc™) at 60,000 cells/well in the presence of a given amount of the test compounds. The cells were allowed to proliferate for 48 h (L1210) or 72 hours (CEM) and were then counted in a Coulter counter.

[4] = test system: FM3A/0; experiment: Cytostatic assay, FM3A/0 cells; type: cell-based; conditions: Mus musculus, FM3A/0; Table 1; read-out: CC50 FM3A/0
Description: The samples were assayed for biological activity versus a range of tumour cell lines with data recorded in Table 1 below. […] The cell lines employed were L1210/0 (a leukemia cell line), FM3A/0 (a breast cancer cell line), Cem/0 (an acute lymphoblastic leukemia cell line) and HeLa (a cervical cell line).

[5] = molecular target: human UP (Homo sapiens, UniProt Q16831); experiment: Phosphorolysis by human UP, HPLC; conditions: 100 μM compound, room temperature, 0-40 min
Description: (§2) Reaction mixtures containing 100 μM test compound and recombinant TP or UP (human TP: 8.6 ng/μL; E. coli TP: 3.0 ng/μL; human UP: 4 ng/mL) in a total volume of 500 μL reaction buffer (10 mM TrisHCl; 300 μM NaCl; 1 mM EDTA; 2 mM KH2PO4/K2HPO4) were incubated at room temperature. At different time points (i.e. 0, 20, 40 min) 100 μL aliquots of the reaction mixtures were withdrawn and heated at 95° C. for 3 min to inactivate the enzyme. […] The separation of Urd from uracil was performed by a linear gradient from 100% separation buffer (see above) to 60% separation buffer+40% acetonitrile (3 min 100% separation buffer; 6 min linear gradient of 100% separation buffer to 60% separation buffer+40% acetonitrile; 6 min 60% separation buffer+40% acetonitrile, followed by equilibration at 100% separation buffer).

[6] = test system: FM3A/TK^−; experiment: Cytostatic assay, FM3A/TK^− cells; type: cell-based; conditions: Mus musculus, Table 1, read-out: CC50 FM3A/TK^−
[7] = Stability in buffer at pH 8 by 31P NMR; type: physicochemical; conditions: 14 hours
Description: The stability of the prodrug CPF-373 towards hydrolysis at pH=8 was studied using in situ ^31P NMR (202 MHz). The ProTide CPF-373 (1) (4.9 mg) was dissolved in MeOD (0.1 mL) after which 0.5 mL buffer (pH=8) (prepared from a solution of 0.1 M Na2HPO4, which was adjusted by 0.1 M HCl) was added. Then the sample was transferred into an NMR tube, and a ^31P NMR experiment was performed at 37° C. recording the data every 12 minutes for 14 hours. Data were processed and analysed with the Bruker Topspin 2.1 program.
(§3) A chemical hydrolysis was evaluated under experimental conditions at pH 1 and pH 8 and monitored by ^31P NMR. During the assay (14 h) under acidic conditions (pH 1) only two peaks representing the two diastereoisomers were recorded.

[8] = test system: HeLa/TK^−; experiment: Cytostatic assay, HeLa/TK^− cells; type: cell-based; conditions: Homo sapiens, HeLa
Description: as §1

[9] = Stability in buffer at pH 1 by 31P NMR; type: physicochemical; conditions: 14 hours
Description: The stability of the prodrug CPF-373 towards hydrolysis at pH=1 was studied using in situ ^31P NMR (202 MHz). The ProTide CPF-373 (1) (2.6 mg) was dissolved in MeOD (0.1 mL) after which 0.5 mL buffer (pH=1) (prepared from equal parts of 0.2 M HCl and 0.2 M KCl) was added. Then the sample was transferred into an NMR tube, and a ^31P NMR experiment was performed at 37° C. recording the data every 12 minutes for 14 hours. Data were processed and analysed with the Bruker Topspin 2.1 program.
as §3

[10] = molecular target: T1, human TP (Homo sapiens, UniProt P19971); experiment: Phosphorolysis by human TP, HPLC; conditions: 100 μM compound, room temperature, 0-40 min
T1 sequence (P19971 11-482): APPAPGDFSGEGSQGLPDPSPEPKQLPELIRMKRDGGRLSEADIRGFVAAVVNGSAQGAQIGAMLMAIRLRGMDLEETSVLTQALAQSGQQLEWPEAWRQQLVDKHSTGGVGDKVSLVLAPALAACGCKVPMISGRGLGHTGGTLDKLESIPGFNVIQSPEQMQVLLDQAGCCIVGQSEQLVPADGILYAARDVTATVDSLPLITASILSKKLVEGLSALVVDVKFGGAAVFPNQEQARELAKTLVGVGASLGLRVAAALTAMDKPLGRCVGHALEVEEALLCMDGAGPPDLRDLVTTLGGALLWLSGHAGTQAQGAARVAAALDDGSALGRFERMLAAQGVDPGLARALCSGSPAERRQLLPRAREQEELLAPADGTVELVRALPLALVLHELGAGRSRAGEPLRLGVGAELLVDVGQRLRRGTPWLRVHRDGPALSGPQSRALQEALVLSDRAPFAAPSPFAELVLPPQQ
Description: as §2

[11] = test system: Cem/TK^−; experiment: Cytostatic assay, thymidine kinase-deficient CEM/TK^− cells; type: cell-based, human; conditions: Homo sapiens, CEM-TK(-)

E. coli TP, sequence (P07650 whole entry): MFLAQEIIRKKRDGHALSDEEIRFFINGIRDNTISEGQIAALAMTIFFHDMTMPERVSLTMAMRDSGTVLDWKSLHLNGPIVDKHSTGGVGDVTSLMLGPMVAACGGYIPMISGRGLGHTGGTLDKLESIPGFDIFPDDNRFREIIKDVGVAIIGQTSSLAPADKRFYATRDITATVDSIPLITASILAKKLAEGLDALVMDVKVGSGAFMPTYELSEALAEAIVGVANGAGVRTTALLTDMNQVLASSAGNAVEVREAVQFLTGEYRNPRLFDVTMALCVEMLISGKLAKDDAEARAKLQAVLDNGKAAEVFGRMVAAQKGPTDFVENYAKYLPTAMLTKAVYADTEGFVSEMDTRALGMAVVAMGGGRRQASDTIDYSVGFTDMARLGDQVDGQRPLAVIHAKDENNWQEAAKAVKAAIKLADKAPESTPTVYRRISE
human UP, sequence (Q16831 whole entry): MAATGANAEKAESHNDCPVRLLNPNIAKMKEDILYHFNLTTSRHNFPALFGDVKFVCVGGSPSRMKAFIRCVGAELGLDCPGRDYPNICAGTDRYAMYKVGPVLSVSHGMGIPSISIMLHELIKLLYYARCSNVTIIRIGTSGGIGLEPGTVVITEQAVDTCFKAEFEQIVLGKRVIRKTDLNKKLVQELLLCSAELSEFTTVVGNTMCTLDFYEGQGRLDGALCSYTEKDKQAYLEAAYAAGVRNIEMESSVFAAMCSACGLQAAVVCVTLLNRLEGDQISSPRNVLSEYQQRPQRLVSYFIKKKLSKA

Row | Compound | Phosphorolysis by E. coli TP [1] | CC50 ([2]; L1210/0, Table 2, mycoplasma negative cells, read-out: CC50 L1210) [nM] | IC50 ([2]; L1210/0, Table 3) [nM] | IC50 ([2]; L1210/0, Table 6) [nM] | IC50 ([2]; L1210/0, Table 7) [nM] | IC50 [3] [nM] | CC50 [4] [nM] | Phosphorolysis by human UP [5] | CC50 [6] [nM] | Stability towards hydrolysis at pH 8 [7] | CC50 ([8]; Table 1, read-out: CC50 HeLa/TK^−) [nM] | IC50 ([8]; Table 6, read-out: IC50 HeLa/TK^−) [nM] | Stability towards hydrolysis at pH 1 [9] | Phosphorolysis by human TP [10] | IC50 ([11]; Table 3, read-out: IC50 CEM/TK−) [nM] | IC50 ([11]; Table 6, read-out: IC50 Cem/TK^−) [nM] | loss of cytostatic activity in U87.Hyor versus uninfected U87 cells [3] [fold] | IC50 ([3]; Table 3) [nM]
1 | C[C@H](NP(=O)(OC[C@H]1O[C@@H](n2cc(F)c(=O)[nH]c2=O)CC1O)Oc1cccc2ccccc12)C(=O)OCc1ccccc1 (stereo partly drawn) [CPF 373, 5-Fluoro-2′deoxyuridine-5′-O-[1-naphthyl (benzoxy-L-alaninyl)] phosphate] | fully stable | 11 | 11 | 11 ± 7 | 11 ± 9 | 39 | 59 ± 46 | not affected | 740 ± 180 | full stability | 2500 ± 1300 | 2500 ± 1300 | full stability | fully stable | 320 | 310 ± 60 |  | 
2 | O=c1[nH]c(=O)n([C@H]2C[C@H](O)[C@@H](CO)O2)cc1F [5-FdUrd, 5-fluoro-2′-deoxyuridine, reference compound] | rapidly converted |  |  |  |  |  | 6.5 ± 5.5 |  | 700 ± 20 |  |  |  |  |  |  |  | 400 | 3000 ± 550
